Consider one molecule from patent US9580428B2, “Compositions and methods for inhibiting viral polymerase” (priority 2012, dated 2017).

The test system of this test is A/NJ/15/2007 (H1N1 - H274Y). Type of test: cell-based, influenza A virus.

Structures are written as SMILES.

Consider `Cl.Cl.Nc1ncnc2c([C@@H]3N[C@H](CO)[C@@H](O)[C@H]3O)c[nH]c12` [compound 12i, (2S,3S,4R,5R)-2-(4-amino-5H-pyrrolo[3,2-d]pyrimidin-7-yl)-5-(hydroxymethyl)pyrrolidine-3,4-diol dihydrochloride], for which the concentration for a half-maximal effect (EC50) (usually the concentration needed to bring the measured effect to its halfway point) was 1.39 mg/L.
